Results as given in the supplement of paper PMC10307832.

Tests used:
Test in all cases: relative viability (nuclei count vs DMSO), 5 days (fraction); higher = more cells survive
NCI-H650 = tested on: NCI-H650
How it was run: (§1)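 Lung cancer cell lines in 1536-well plates got either a single drug or a fixed anchor-drug dose together with five library-drug doses (not always all listed) in √10 steps, by pin tool, on the day after seeding. Nuclei were counted after 5 days, and relative viability is the treated-to-vehicle ratio of nuclei counts. Values are medians of duplicate plates.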

NCI-H23 = tested on: NCI-H23
How it was run: as §1

NCI-H358 = tested on: NCI-H358
How it was run: as §1

COR-L23 = tested on: COR-L23
How it was run: as §1

NCI-H2342 = tested on: NCI-H2342
How it was run: as §1

NCI-H441 = tested on: NCI-H441
How it was run: as §1

A-427 = tested on: A-427
How it was run: as §1

NCI-H1975 = tested on: NCI-H1975
How it was run: as §1

SK-MES-1 = tested on: SK-MES-1
How it was run: as §1

BEN = tested on: BEN
How it was run: as §1

NCI-H838 = tested on: NCI-H838
How it was run: as §1

HCC-15 = tested on: HCC-15
How it was run: as §1

NCI-H1437 = tested on: NCI-H1437
How it was run: as §1

HCC-827 = tested on: HCC-827
How it was run: as §1

HCC-44 = tested on: HCC-44
How it was run: as §1

NCI-H596 = tested on: NCI-H596
How it was run: as §1

EKVX = tested on: EKVX
How it was run: as §1

201T = tested on: 201T
How it was run: as §1

HARA = tested on: HARA
How it was run: as §1

SW 900 = tested on: SW 900
How it was run: as §1

NCI-H1650 = tested on: NCI-H1650
How it was run: as §1

Nc1ccn([C@@H]2O[C@H](CO)[C@@H](O)[C@@H]2O)c(=O)n1 [Cytarabine] + O=C(CCCCCCC(=O)Nc1ccccc1)NO [Vorinostat] (partner 1 µM)
relative viability (NCI-H650; first compound 0.005 µM): 0.417
relative viability (NCI-H650; first compound 0.01581 µM): 0.315
relative viability (NCI-H650; first compound 0.05 µM): 0.212
relative viability (NCI-H650; first compound 0.1581 µM): 0.136
relative viability (NCI-H650; first compound 0.5 µM): 0.112
relative viability (NCI-H23; first compound 0.005 µM): 0.65
relative viability (NCI-H23; first compound 0.01581 µM): 0.511
relative viability (NCI-H23; first compound 0.05 µM): 0.306
relative viability (NCI-H23; first compound 0.1581 µM): 0.156
relative viability (NCI-H23; first compound 0.5 µM): 0.122
relative viability (NCI-H358; first compound 0.005 µM): 0.632
relative viability (NCI-H358; first compound 0.01581 µM): 0.557
relative viability (NCI-H358; first compound 0.05 µM): 0.538
relative viability (NCI-H358; first compound 0.1581 µM): 0.178
relative viability (NCI-H358; first compound 0.5 µM): 0.113
relative viability (COR-L23; first compound 0.005 µM): 0.376
relative viability (COR-L23; first compound 0.01581 µM): 0.404
relative viability (COR-L23; first compound 0.05 µM): 0.304
relative viability (COR-L23; first compound 0.1581 µM): 0.136
relative viability (NCI-H2342; first compound 0.005 µM): 0.718
relative viability (NCI-H2342; first compound 0.01581 µM): 0.698
relative viability (NCI-H2342; first compound 0.05 µM): 0.657
relative viability (NCI-H2342; first compound 0.1581 µM): 0.52
relative viability (NCI-H2342; first compound 0.5 µM): 0.465
relative viability (NCI-H441; first compound 0.005 µM): 0.527
relative viability (NCI-H441; first compound 0.01581 µM): 0.882
relative viability (NCI-H441; first compound 0.05 µM): 0.852
relative viability (NCI-H441; first compound 0.1581 µM): 0.398
relative viability (NCI-H441; first compound 0.5 µM): 0.229
relative viability (A-427; first compound 0.005 µM): 0.758
relative viability (A-427; first compound 0.01581 µM): 0.636
relative viability (A-427; first compound 0.05 µM): 0.325
relative viability (A-427; first compound 0.1581 µM): 0.339
relative viability (A-427; first compound 0.5 µM): 0.306
relative viability (NCI-H1975; first compound 0.005 µM): 0.572
relative viability (NCI-H1975; first compound 0.01581 µM): 0.675
relative viability (NCI-H1975; first compound 0.05 µM): 0.568
relative viability (NCI-H1975; first compound 0.1581 µM): 0.429
relative viability (NCI-H1975; first compound 0.5 µM): 0.287
relative viability (SK-MES-1; first compound 0.005 µM): 0.851
relative viability (SK-MES-1; first compound 0.01581 µM): 0.778
relative viability (SK-MES-1; first compound 0.05 µM): 0.6
relative viability (SK-MES-1; first compound 0.1581 µM): 0.283
relative viability (SK-MES-1; first compound 0.5 µM): 0.233
relative viability (BEN; first compound 0.005 µM): 0.553
relative viability (BEN; first compound 0.01581 µM): 0.56
relative viability (BEN; first compound 0.05 µM): 0.447
relative viability (BEN; first compound 0.1581 µM): 0.394
relative viability (BEN; first compound 0.5 µM): 0.364
relative viability (NCI-H838; first compound 0.005 µM): 0.715
relative viability (NCI-H838; first compound 0.01581 µM): 0.651
relative viability (NCI-H838; first compound 0.05 µM): 0.654
relative viability (NCI-H838; first compound 0.1581 µM): 0.515
relative viability (NCI-H838; first compound 0.5 µM): 0.318
relative viability (HCC-15; first compound 0.005 µM): 0.856
relative viability (HCC-15; first compound 0.01581 µM): 0.784
relative viability (HCC-15; first compound 0.05 µM): 0.775
relative viability (HCC-15; first compound 0.1581 µM): 0.676
relative viability (HCC-15; first compound 0.5 µM): 0.647
relative viability (NCI-H1437; first compound 0.005 µM): 0.889
relative viability (NCI-H1437; first compound 0.01581 µM): 0.77
relative viability (NCI-H1437; first compound 0.05 µM): 0.605
relative viability (NCI-H1437; first compound 0.1581 µM): 0.423
relative viability (NCI-H1437; first compound 0.5 µM): 0.303
relative viability (HCC-827; first compound 0.005 µM): 0.539
relative viability (HCC-827; first compound 0.01581 µM): 0.331
relative viability (HCC-827; first compound 0.05 µM): 0.169
relative viability (HCC-827; first compound 0.1581 µM): 0.145
relative viability (HCC-827; first compound 0.5 µM): 0.141
relative viability (HCC-44; first compound 0.005 µM): 1.2
relative viability (HCC-44; first compound 0.01581 µM): 1.09
relative viability (HCC-44; first compound 0.05 µM): 1.08
relative viability (HCC-44; first compound 0.1581 µM): 0.973
relative viability (HCC-44; first compound 0.5 µM): 0.948
relative viability (NCI-H596; first compound 0.005 µM): 0.545
relative viability (NCI-H596; first compound 0.01581 µM): 0.553
relative viability (NCI-H596; first compound 0.05 µM): 0.502
relative viability (NCI-H596; first compound 0.1581 µM): 0.431
relative viability (NCI-H596; first compound 0.5 µM): 0.272
relative viability (EKVX; first compound 0.005 µM): 0.706
relative viability (EKVX; first compound 0.01581 µM): 0.7
relative viability (EKVX; first compound 0.05 µM): 0.636
relative viability (EKVX; first compound 0.1581 µM): 0.494
relative viability (EKVX; first compound 0.5 µM): 0.414
relative viability (201T; first compound 0.005 µM): 0.978
relative viability (201T; first compound 0.01581 µM): 1.03
relative viability (201T; first compound 0.05 µM): 1
relative viability (201T; first compound 0.1581 µM): 0.994
relative viability (201T; first compound 0.5 µM): 0.937
relative viability (HARA; first compound 0.005 µM): 0.694
relative viability (HARA; first compound 0.01581 µM): 0.44
relative viability (HARA; first compound 0.05 µM): 0.52
relative viability (HARA; first compound 0.1581 µM): 0.458
relative viability (HARA; first compound 0.5 µM): 0.347
relative viability (SW 900; first compound 0.005 µM): 0.399
relative viability (SW 900; first compound 0.01581 µM): 0.491
relative viability (SW 900; first compound 0.05 µM): 0.376
relative viability (SW 900; first compound 0.1581 µM): 0.182
relative viability (SW 900; first compound 0.5 µM): 0.166
relative viability (NCI-H1650; first compound 0.005 µM): 0.563
relative viability (NCI-H1650; first compound 0.01581 µM): 0.514
relative viability (NCI-H1650; first compound 0.05 µM): 0.261
relative viability (NCI-H1650; first compound 0.1581 µM): 0.241
relative viability (NCI-H1650; first compound 0.5 µM): 0.226
